Assay results reported in US7947818B2, “Heteromolecular metal-humic (chelate) complexes” (priority 2007, dated 2011).

How the values were obtained:
nectarine trees = experiment: Field study: iron chlorosis and crop of nectarine trees in basic, calcareous soil; assay type: in vivo; conditions: dose d1 (5 g of Fe per tree)
Method: In this study, the effect of the heteromolecular humate-Fe citrate complex on nectarine trees cultivated in a basic, calcareous soil was analysed. This effect was compared to the effect of an Fe EDDHA chelate of reference. This test was performed in a field with a high chlorotic power, wherein a clear response to the standard Fe chelate (Fe EDDHA) is not observed.

[1] = test system: cucumber plants (sensitive variety, Anico); experiment: Pot study: foliar Fe content of cucumber plants in basic, calcareous soil; assay type: in vivo; conditions: Fe dose 4 ppm; after 30 days of cultivation; soil pH=8.04, % CO3=23%
Text: Study of the effect of applying a heteromolecular humate-iron citrate complex in cucumber plants (sensitive variety, Anico) cultivated in a basic (pH=8.04), calcareous (% CO3=23%) soil. In this study, performed in pots, the effect of the synthesis chelate of reference in correcting iron chlorosis (Fe-EDDHA orto-orto isomer) was compared to the effect of the heteromolecular humate-Fe citrate complex prepared according to Example 1; in relation to these compounds' capacity to increase iron absorption in cucumber (v anico) plants sensitive to iron chlorosis. The results obtained after 30 days of cultivation are shown in the following figure, where the Fe-EDDHA chelate orto-orto isomer is called (o,o) and the heteromolecular complex is called (H-Cit). The Fe doses applied were: 4 ppm (o, o) and 4 and 8 ppm (H-Cit).

Compound	Commercial production increase with respect to control (nectarine trees)	Crop 21 days after treatment (nectarine trees) [kg/tree]	Green colour (1-10) 62 days post-treatment (nectarine trees; leaves' green colour)	Green colour (1-10) 85 days post-treatment (nectarine trees; leaves' green colour)	increase in foliar Fe content [1]
Fe EDDHA [FeEDDHA]	+57.9	5.8	5.3	5.9	
O=C([O-])C(NCCNC(C(=O)[O-])c1ccccc1[O-])c1ccccc1[O-].[Fe+3] (single isomer, unassigned) [(o,o), Fe-EDDHA orto-orto isomer]					approximately 50%
